This note sets out measurements from BindingDB's records for doi:10.1016/s0960-894x(00)00493-5 (Wyeth-Ayerst Research, 2000).

This assay has as its target Proto-oncogene tyrosine-protein kinase Src (Homo sapiens, UniProt P12931). Kind of assay: Kinase inhibition Assay. The following applies: pH 7.5; 30 °C. As for the experimental part: Src kinase activity was measured in an ELISA format. IC50 is the inhibitor concentration which inhibits 50% of kinase activity that catalyzes the transfer of the terminal phosphate from ATP to the substrate.

The structures appear in SMILES notation. Some results are limits rather than exact numbers.

Chain of Proto-oncogene tyrosine-protein kinase Src (P12931 2-536 limits assumed): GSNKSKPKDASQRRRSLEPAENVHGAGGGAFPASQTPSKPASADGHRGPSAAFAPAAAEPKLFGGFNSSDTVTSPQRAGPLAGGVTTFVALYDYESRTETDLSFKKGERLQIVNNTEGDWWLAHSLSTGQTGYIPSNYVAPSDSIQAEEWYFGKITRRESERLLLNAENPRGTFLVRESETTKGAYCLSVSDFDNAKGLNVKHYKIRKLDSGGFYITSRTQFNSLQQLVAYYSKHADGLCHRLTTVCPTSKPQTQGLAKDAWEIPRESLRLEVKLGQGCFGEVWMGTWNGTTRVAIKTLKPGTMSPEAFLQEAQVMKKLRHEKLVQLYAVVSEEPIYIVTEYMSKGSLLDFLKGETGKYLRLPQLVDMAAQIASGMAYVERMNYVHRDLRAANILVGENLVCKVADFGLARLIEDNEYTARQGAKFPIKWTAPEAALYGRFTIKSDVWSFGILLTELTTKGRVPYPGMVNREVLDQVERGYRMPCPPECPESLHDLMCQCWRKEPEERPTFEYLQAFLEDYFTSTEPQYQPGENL

What is called IC50 is the concentration that gives 50% inhibition. Regarding `COc1cc2ncc(C#N)c(NCc3cc(OC)c(OC)c(OC)c3)c2cc1OC` [6,7-dimethoxy-4-{[(3,4,5-trimethoxyphenyl)methyl]amino}quinoline-3-carbonitrile], the IC50 was > 10 µM.
